# How the values were obtained:
# Format in all cases: cell-based
# A549 cells = assay: Cell viability (CellTiter-Glo ATP content) in A549 cells; conditions: Homo sapiens, A549, 72 h, 72 hours treatment, cell survival by CellTiter-Glo, 2% fetal bovine serum
# How it was run: (§1)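 Cells plated at 5,000 per well in antibiotic-free RPMI with 2% FBS, treated next day in triplicate with increasing compound doses (final DMSO 0.5%) for 72 hours. Viability read as ATP content by CellTiter-Glo luminescence; percent survival relative to vehicle control set as 100%.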
# LOX cells = assay: Cell viability (CellTiter-Glo ATP content) in LOX cells; conditions: LOX, 72 h, 72 hours treatment, cell survival by CellTiter-Glo, 2% fetal bovine serum
# How it was run: as §1
# MelJuSo cells = assay: Cell viability (CellTiter-Glo ATP content) in MelJuSo cells; conditions: Homo sapiens, MEL-JUSO, 72 hours treatment, cell survival by CellTiter-Glo, 2% fetal bovine serum
# How it was run: as §1
Compound,IC50 (A549 cells) [µM],IC50 (LOX cells) [µM],IC50 (MelJuSo cells) [µM]
"CN1CCOC(CNC(=O)C2(C)C(c3ccc(Cl)o3)C(c3ccc(F)cc3F)=NN2c2ccc(F)cc2F)C1 (stereo not drawn) [Compound 135, 4-(5-chlorofuran-2-yl)-1,3-bis(2,4-difluorophenyl)-5-methyl-N-((4-methylmorpholin-2-yl)methyl)-4,5-dihydro-1H-pyrazole-5-carboxamide]",< 0.25,< 0.25,< 0.25
"CCCCC1C(c2c(F)cc(F)cc2F)=NN(c2ccc(F)cc2F)C1(C)C(=O)NCCCC(C)(C)CO (stereo not drawn) [Compound 97, 4-butyl-1-(2,4-difluorophenyl)-N-(5-hydroxy-4,4-dimethylpentyl)-5-methyl-3-(2,4,6-trifluorophenyl)-4,5-dihydro-1H-pyrazole-5-carboxamide]",> 2,1 to 2,0.5 to 1
"COC(=O)CNC(=O)C1(C)C(c2ccc(F)cc2F)=NN(c2ccc(F)cc2F)C1c1ccc(Cl)o1 (stereo not drawn) [Compound 137, methyl 2-(5-(5-chlorofuran-2-yl)-1,3-bis(2,4-difluorophenyl)-4-methyl-4,5-dihydro-1H-pyrazole-4-carboxamido)acetate]",> 2,> 2,0.5 to 1
"CCCCC1C(c2ccc(F)cc2F)=NN(c2ccc(F)cc2F)C1(C)C(=O)NCCCC(C)(C)CO (stereo not drawn) [Compound 89, 4-butyl-1,3-bis(2,4-difluorophenyl)-N-(5-hydroxy-4,4-dimethylpentyl)-5-methyl-4,5-dihydro-1H-pyrazole-5-carboxamide]",1 to 2,0.5 to 1,0.5 to 1
"CCCCC1C(c2ccc(F)cc2)=NN(c2cccc(C)c2)C1(C)C(=O)NCCOC (stereo not drawn) [Compound 55, 4-butyl-3-(4-fluorophenyl)-N-(2-methoxyethyl)-5-methyl-1-m-tolyl-4,5-dihydro-1H-pyrazole-5-carboxamide]",0.25 to 0.5,< 0.25,< 0.25
"CCCCC1C(c2ccc(F)cc2)=NN(c2cccc(F)c2)C1(C)C(=O)NCCCOC (stereo not drawn) [Compound 8, 4-butyl-1-(3-fluorophenyl)-3-(4-fluorophenyl)-N-(3-methoxypropyl)-5-methyl-4,5-dihydro-1H-pyrazole-5-carboxamide]",> 2,> 2,1 to 2
"CCCCC1C(c2ccc(F)cc2)=NN(c2ccc(F)cc2F)C1(C)C(=O)NCCOCC (stereo not drawn) [Compound 32, 4-butyl-1-(2,4-difluorophenyl)-N-(2-ethoxyethyl)-3-(4-fluorophenyl)-5-methyl-4,5-dihydro-1H-pyrazole-5-carboxamide]",0.5 to 1,0.5 to 1,0.25 to 0.5
"CC1(C(=O)NCC(=O)NCCS(C)(=O)=O)C(c2cccs2)C(c2ccc(F)cc2)=NN1c1ccc(F)cc1F (stereo not drawn) [Compound 109, 1-(2,4-difluorophenyl)-3-(4-fluorophenyl)-5-methyl-N-(2-(2-(methylsulfonyl)ethylamino)-2-oxoethyl)-4-(thiophen-2-yl)-4,5-dihydro-1H-pyrazole-5-carboxamide]",> 2,> 2,> 2
"CCCCC1C(c2ccc(F)cc2)=NN(c2ccccc2)C1(C)C(=O)N[C@@H](C)c1ccccc1 (stereo partly drawn) [Compound 42, 4-butyl-3-(4-fluorophenyl)-5-methyl-1-phenyl-N-((S)-1-phenylethyl)-4,5-dihydro-1H-pyrazole-5-carboxamide]",> 2,> 2,> 2
"CCCCC1C(c2ccc(F)cc2)=NN(c2ccccc2)C1(C)C(=O)NC(C)c1ccc(S(C)(=O)=O)cc1 (stereo not drawn) [Compound 69, 4-butyl-3-(4-fluorophenyl)-5-methyl-N-(1-(4-(methylsulfonyl)phenyl)ethyl)-1-phenyl-4,5-dihydro-1H-pyrazole-5-carboxamide]",> 2,> 2,> 2
"Cc1ccc(C2C(c3ccc(F)cc3)=NN(c3ccc(F)cc3F)C2(C)C(=O)NCCCC(C)(C)CO)s1 (stereo not drawn) [Compound 99, 1-(2,4-difluorophenyl)-3-(4-fluorophenyl)-N-(5-hydroxy-4,4-dimethylpentyl)-5-methyl-4-(5-methylthiophen-2-yl)-4,5-dihydro-1H-pyrazole-5-carboxamide]",> 2,> 2,1 to 2
"CCCCC1C(c2ccc(F)cc2)=NN(c2ccc(F)cc2Cl)C1(C)C(=O)NCCCC(C)(C)CO (stereo not drawn) [Compound 22, 4-butyl-1-(2-chloro-4-fluorophenyl)-3-(4-fluorophenyl)-N-(5-hydroxy-4,4-dimethylpentyl)-5-methyl-4,5-dihydro-1H-pyrazole-5-carboxamide]",> 2,> 2,> 2
"CC(C)(CO)CCCNC(=O)C1(C)C(c2ccc(Cl)o2)C(c2ccc(F)cc2F)=NN1c1ccc(F)cc1F (stereo not drawn) [Compound 133, 4-(5-chlorofuran-2-yl)-1,3-bis(2,4-difluorophenyl)-N-(5-hydroxy-4,4-dimethylpentyl)-5-methyl-4,5-dihydro-1H-pyrazole-5-carboxamide]",< 0.25,< 0.25,< 0.25
"COCCNC(=O)C1(C)C(c2ccco2)C(c2ccc(F)cc2)=NN1c1ccc(F)cc1F (stereo not drawn) [Compound 92, 1-(2,4-difluorophenyl)-3-(4-fluorophenyl)-4-(furan-2-yl)-N-(2-methoxyethyl)-5-methyl-4,5-dihydro-1H-pyrazole-5-carboxamide]",< 0.25,< 0.25,< 0.25
"CCCCC1C(c2ccc(F)cc2)=NN(c2ccccc2)C1(C)C(=O)N(C)Cc1ccc(OC)c(OC)c1 (stereo not drawn) [Compound 47, 4-butyl-N-(3,4-dimethoxybenzyl)-3-(4-fluorophenyl)-N,5-dimethyl-1-phenyl-4,5-dihydro-1H-pyrazole-5-carboxamide]",> 2,> 2,> 2
"CC(C)(CO)CCCNC(=O)C1(C)C(c2ccco2)C(c2ccc(F)cc2)=NN1c1ccc(F)cc1F (stereo not drawn) [Compound 91, 1-(2,4-difluorophenyl)-3-(4-fluorophenyl)-4-(furan-2-yl)-N-(5-hydroxy-4,4-dimethylpentyl)-5-methyl-4,5-dihydro-1H-pyrazole-5-carboxamide]",0.25 to 0.5,0.25 to 0.5,< 0.25
"CCCCC1C(c2ccc(S(C)(=O)=O)cc2)=NN(c2ccc(F)cc2F)C1(C)C(=O)NCCOC (stereo not drawn) [Compound 114, 4-butyl-1-(2,4-difluorophenyl)-N-(2-methoxyethyl)-5-methyl-3-(4-(methylsulfonyl)phenyl)-4,5-dihydro-1H-pyrazole-5-carboxamide]",> 2,> 2,> 2
"CCCCC1C(c2ccc(F)cc2)=NN(c2ccc(F)c(OC)c2)C1(C)C(=O)NCCCC(C)(C)CO (stereo not drawn) [Compound 18, 4-butyl-1-(4-fluoro-3-methoxyphenyl)-3-(4-fluorophenyl)-N-(5-hydroxy-4,4-dimethylpentyl)-5-methyl-4,5-dihydro-1H-pyrazole-5-carboxamide]",> 2,> 2,> 2
"CCCCC1C(c2ccc(F)cc2)=NN(c2ccccc2)C1(C)C(=O)NCc1ccc(O)cc1 (stereo not drawn) [Compound 36, 4-butyl-3-(4-fluorophenyl)-N-(4-hydroxybenzyl)-5-methyl-1-phenyl-4,5-dihydro-1H-pyrazole-5-carboxamide]",> 2,> 2,1 to 2
"CCCCC1C(c2ccc(F)cc2)=NN(c2ccccc2)C1(C)C(=O)NCCCN1CCOCC1 (stereo not drawn) [Compound 65, 4-butyl-3-(4-fluorophenyl)-5-methyl-N-(3-morpholinopropyl)-1-phenyl-4,5-dihydro-1H-pyrazole-5-carboxamide]",> 2,> 2,> 2
"CCCCC1C(c2ccc(F)cc2)=NN(c2ccccc2)C1(C)C(=O)NCCCCCCO (stereo not drawn) [Compound 34, 4-butyl-3-(4-fluorophenyl)-N-(6-hydroxyhexyl)-5-methyl-1-phenyl-4,5-dihydro-1H-pyrazole-5-carboxamide]",> 2,0.5 to 1,0.5 to 1
"COC(=O)CNC(=O)C1(C)C(c2ccoc2)C(c2ccc(F)cc2F)=NN1c1ccc(F)cc1F (stereo not drawn) [Compound 131, methyl 2-(1,3-bis(2,4-difluorophenyl)-4-(furan-3-yl)-5-methyl-4,5-dihydro-1H-pyrazole-5-carboxamido)acetate]",0.5 to 1,0.5 to 1,0.25 to 0.5
"CCCCC1C(c2ccc(F)cc2)=NN(c2ccc(C)cc2)C1(C)C(=O)NCCCOC (stereo not drawn) [Compound 16, 4-butyl-3-(4-fluorophenyl)-N-(3-methoxypropyl)-5-methyl-1-p-tolyl-4,5-dihydro-1H-pyrazole-5-carboxamide]",> 2,> 2,0.5 to 1
"CC1(C(=O)NCC(=O)N2CCOCC2)C(c2cccs2)C(c2ccc(F)cc2)=NN1c1ccc(F)cc1F (stereo not drawn) [Compound 106, 1-(2,4-difluorophenyl)-3-(4-fluorophenyl)-5-methyl-N-(2-morpholino-2-oxoethyl)-4-(thiophen-2-yl)-4,5-dihydro-1H-pyrazole-5-carboxamide]",> 2,> 2,> 2
"CC1(O)CC(NC(=O)CNC(=O)C2(C)C(c3cccs3)C(c3ccc(F)cc3)=NN2c2ccc(F)cc2F)C1 (stereo not drawn) [Compound 110, 1-(2,4-difluorophenyl)-3-(4-fluorophenyl)-N-(2-(3-hydroxy-3-methylcyclobutylamino)-2-oxoethyl)-5-methyl-4-(thiophen-2-yl)-4,5-dihydro-1H-pyrazole-5-carboxamide]",> 2,> 2,> 2
"CCCCC1C(c2ccc(F)cc2)=NN(c2ccccc2)C1(C)C(=O)NCC(C)(C)CN(C)C (stereo not drawn) [Compound 50, 4-butyl-N-(3-(dimethylamino)-2,2-dimethylpropyl)-3-(4-fluorophenyl)-5-methyl-1-phenyl-4,5-dihydro-1H-pyrazole-5-carboxamide]",> 2,> 2,> 2
